Consider twelve compounds from ChEMBL document CHEMBL1201862, “PubChem BioAssay data set” (2004).

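1) Cells in 96-well plates. 2) Compound, 48 h, 5 concentrations. 3) Linear interpolation between surrounding doses. 4) Unreached endpoint = highest concentration. Here, GI50 denotes the concentration required for 50% inhibition of growth.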 Calls of active or inactive are those of the source. No stated cut-off is given here; in the data, active = GI50 up to about 1.1 µM and inactive = higher.

Among the test systems are ACHN; SF-539; CCRF-CEM; SK-MEL-5; KM12; SNB-19; COLO 205; TK-10; Malme-3M; 786-0; HL-60; HOP-92; NCI-H460; SK-OV-3; RPMI-8226; UO-31; K562; OVCAR-3; HCT-116.
What all share (assay): growth of human tumour cells (NCI), 48 h

Consider `CC(=O)Nc1ccc2nc(-c3cccc(Cl)c3)cc(O)c2c1`, for which the GI50 in the assay on ACHN was 64.6 µM (inactive); in the assay on SF-539 it was 4.71 µM (inactive); with CCRF-CEM it was 3.44 µM (inactive); in the assay on SK-MEL-5, 4.93 µM (inactive); in the assay with KM12, 4.83 µM (inactive); in the assay with SNB-19, 7.62 µM (inactive). In addition, the GI50 in the assay on COLO 205 is 2.99 µM (inactive); in the assay on TK-10, > 100 µM (inactive); in the assay on Malme-3M, 3.18 µM (inactive); in the assay with 786-0 it was 13.4 µM (inactive); with HL-60, 8.34 µM (inactive); in the assay on HOP-92, 4.85 µM (inactive). Besides, the values for the GI50 in the assay with NCI-H460, with SK-OV-3 and in the assay on RPMI-8226 were > 10 µM (inactive), 0.787 µM (active) and 66.1 µM (inactive), respectively.

Turning to `Fc1ccccc1C1CC(c2ccc3ccccc3c2)=Nc2ccccc2S1` (centres undefined), the GI50 in the assay on UO-31, in the assay with ACHN, in the assay with SF-539, in the assay with CCRF-CEM, with KM12 and with SNB-19 was > 100 µM (inactive) in each case. In addition, the GI50 in the assay with K562 was > 10 µM (inactive); in the assay with COLO 205 it was > 100 µM (inactive); with TK-10, > 100 µM (inactive); in the assay with Malme-3M, > 100 µM (inactive); in the assay with 786-0 it was > 100 µM (inactive); in the assay with OVCAR-3, > 100 µM (inactive). In addition, the GI50 in the assay with HL-60, in the assay with HCT-116, in the assay with NCI-H460 and in the assay on SK-OV-3 was > 100 µM (inactive) in each case.

Regarding `Cc1cccc(NC(=O)CC2C(=O)Nc3ccccc3S2(=O)=O)c1C` (centres undefined), the GI50 is 20.9 µM (inactive) in the assay on UO-31; 23.2 µM (inactive) in the assay with ACHN; 19.8 µM (inactive) with SF-539; 28.6 µM (inactive) in the assay with SK-MEL-5; 30.8 µM (inactive) in the assay on KM12; 32.1 µM (inactive) in the assay on SNB-19. For the same compound, the GI50 in the assay with K562 is 9.18 µM (inactive); in the assay with COLO 205 it was > 100 µM (inactive); in the assay on TK-10, 28.9 µM (inactive); with Malme-3M, 22.9 µM (inactive); with 786-0 it was 29 µM (inactive); in the assay with OVCAR-3, 21.7 µM (inactive). In addition, the GI50 was 23.3 µM (inactive) with HL-60; 19.1 µM (inactive) in the assay on HOP-92; 17.2 µM (inactive) in the assay with HCT-116; 22.6 µM (inactive) in the assay on NCI-H460; 21.9 µM (inactive) in the assay with SK-OV-3.

With `O=c1[nH]c(-c2ccccc2)nc2ccc(Cl)cc12`, the GI50 with UO-31 was 48.1 µM (inactive); in the assay with ACHN it was 73.1 µM (inactive); in the assay on SF-539 it was > 100 µM (inactive); with KM12 it was 68.5 µM (inactive); in the assay on SNB-19 it was 79.3 µM (inactive); in the assay with K562, 26.9 µM (inactive). The GI50 with COLO 205 was > 100 µM (inactive); in the assay on TK-10, 35.2 µM (inactive); in the assay with Malme-3M it was 48.6 µM (inactive); in the assay on 786-0, 60.8 µM (inactive); in the assay on OVCAR-3, 31 µM (inactive); in the assay with HOP-92, 16.5 µM (inactive). For the same compound, the GI50 with HCT-116 is > 100 µM (inactive); in the assay on RPMI-8226 it was 33.2 µM (inactive).

`N#Cc1ccc(-c2nc3cc(Cl)ccc3[nH]2)cc1`: the GI50 with UO-31 was 27.6 µM (inactive); with SF-539, > 100 µM (inactive); with CCRF-CEM, 41.2 µM (inactive); with SK-MEL-5, 37.8 µM (inactive); with KM12 it was 25.3 µM (inactive); with SNB-19 it was > 100 µM (inactive). The GI50 in the assay with K562 is 50.2 µM (inactive); in the assay on COLO 205, 74.8 µM (inactive); with 786-0 it was > 100 µM (inactive); in the assay with OVCAR-3, 54.7 µM (inactive); in the assay on HL-60, 13 µM (inactive); with HOP-92, > 100 µM (inactive). The GI50 with SK-OV-3 and with RPMI-8226 was > 100 µM (inactive) each time.

Regarding `CCOC(=O)c1c(N)sc2c1C(C(=O)OCC)CCCC2` (centres undefined), the GI50 in the assay on UO-31 is 37.6 µM (inactive); in the assay on ACHN it was 83.6 µM (inactive); in the assay with SK-MEL-5 it was 75.2 µM (inactive); with KM12, > 100 µM (inactive); in the assay on SNB-19 it was 71.6 µM (inactive); with K562, 52.8 µM (inactive). Further, the GI50 with COLO 205 is 85.7 µM (inactive); in the assay on TK-10, > 100 µM (inactive); in the assay with Malme-3M, > 100 µM (inactive); with 786-0 it was > 100 µM (inactive); in the assay with HL-60 it was 26.2 µM (inactive); with HOP-92, 75.5 µM (inactive). For the same compound, the GI50 with HCT-116 is 43.1 µM (inactive); in the assay with NCI-H460, 35.2 µM (inactive); in the assay with RPMI-8226, 46.2 µM (inactive).

In the case of `C#CCNC(=O)N(CC#C)N=O`, the GI50 is > 100 µM (inactive) with UO-31; > 100 µM (inactive) in the assay on ACHN; > 100 µM (inactive) in the assay on SF-539; 37.9 µM (inactive) in the assay on CCRF-CEM; > 100 µM (inactive) in the assay on SK-MEL-5; > 100 µM (inactive) with KM12. For the same compound, the GI50 in the assay on SNB-19 was > 100 µM (inactive); in the assay on K562, 24.8 µM (inactive); in the assay with TK-10, > 100 µM (inactive); in the assay on Malme-3M it was > 100 µM (inactive); in the assay with 786-0, > 100 µM (inactive); with OVCAR-3, > 100 µM (inactive). Besides, the GI50 is 25.3 µM (inactive) in the assay on HL-60; > 100 µM (inactive) with HOP-92; > 100 µM (inactive) in the assay with HCT-116; > 100 µM (inactive) in the assay on NCI-H460; > 100 µM (inactive) in the assay on SK-OV-3.

Turning to `COc1cc(Br)c(/C=N\c2cccc3ccc(OS(=O)(=O)c4ccc([N+](=O)[O-])cc4)cc23)cc1OC`, the GI50 with UO-31 was 7.33 µM (inactive); with ACHN, 12.4 µM (inactive); in the assay with SF-539 it was > 100 µM (inactive); in the assay on CCRF-CEM it was > 100 µM (inactive); with SK-MEL-5 it was 13.8 µM (inactive); in the assay on KM12, 59.4 µM (inactive). The GI50 with SNB-19 was 63.4 µM (inactive); with COLO 205, > 100 µM (inactive); in the assay on Malme-3M, > 100 µM (inactive); in the assay on 786-0, 75.7 µM (inactive); in the assay on OVCAR-3, > 100 µM (inactive); with HOP-92, 47.3 µM (inactive). Besides, the GI50 in the assay on HCT-116, with NCI-H460, in the assay on SK-OV-3 and in the assay on RPMI-8226 was > 100 µM (inactive) throughout.

With `COCCCNC(=O)C1C(=O)N(CCCOC)C(=O)/C1=N\N` (centres undefined), the GI50 with UO-31, in the assay on ACHN, in the assay with SF-539, in the assay with CCRF-CEM, in the assay with SK-MEL-5 and in the assay on KM12 was > 100 µM (inactive) in each case. In addition, the GI50 with SNB-19, with K562, in the assay on COLO 205, in the assay with TK-10, in the assay on Malme-3M and in the assay on 786-0 was > 100 µM (inactive) each time. Further, the GI50 in the assay with OVCAR-3, in the assay on HL-60, with HOP-92, with HCT-116, in the assay on NCI-H460 and in the assay with RPMI-8226 was > 100 µM (inactive) throughout.

Regarding `COC(=O)c1c/c(=N\NC(=O)CC(=O)Nc2ccccc2Cl)c2ccccc2o1`, the GI50 is 91.4 µM (inactive) with UO-31; > 100 µM (inactive) in the assay with ACHN; > 100 µM (inactive) in the assay with SF-539; > 100 µM (inactive) with SK-MEL-5; > 100 µM (inactive) in the assay with KM12; > 100 µM (inactive) in the assay with SNB-19. Moreover, the GI50 with K562, in the assay with COLO 205, in the assay on TK-10, in the assay on 786-0, in the assay with OVCAR-3 and in the assay with HL-60 was > 100 µM (inactive) each time. In addition, the GI50 in the assay on HCT-116, with NCI-H460, in the assay with SK-OV-3 and in the assay with RPMI-8226 was > 100 µM (inactive) each time.

In the case of `COC(=O)C1=C(C[S+]([O-])c2ccc([N+](=O)[O-])cc2[N+](=O)[O-])ON(C)C1c1ccccc1` (centres undefined), the GI50 in the assay on UO-31 was 39.4 µM (inactive); in the assay on ACHN, 67.6 µM (inactive); in the assay with SF-539, 21.9 µM (inactive); in the assay on CCRF-CEM it was 9.06 µM (inactive); in the assay with SK-MEL-5 it was 83.9 µM (inactive); in the assay on KM12, 37.2 µM (inactive). In addition, the GI50 was 32.8 µM (inactive) in the assay with SNB-19; 12.1 µM (inactive) in the assay with K562; 24.2 µM (inactive) with COLO 205; > 48.9 µM (inactive) in the assay with TK-10; > 84.5 µM (inactive) in the assay with Malme-3M; 67.1 µM (inactive) with 786-0. The GI50 is 43.2 µM (inactive) in the assay with OVCAR-3; 7.66 µM (inactive) in the assay with HL-60; 34 µM (inactive) with HCT-116; > 90.4 µM (inactive) with NCI-H460; > 100 µM (inactive) in the assay on SK-OV-3; 13.4 µM (inactive) in the assay on RPMI-8226.

In the case of `[O-][Cl+3]([O-])([O-])[O-].c1ccc(C[P+]2(c3ccccc3)CCCCC2)cc1`, the GI50 was > 100 µM (inactive) in the assay on UO-31; > 100 µM (inactive) in the assay with ACHN; > 100 µM (inactive) in the assay on SF-539; > 100 µM (inactive) in the assay on CCRF-CEM; 28.7 µM (inactive) with SK-MEL-5; > 100 µM (inactive) in the assay on KM12. Moreover, the GI50 with SNB-19 was > 100 µM (inactive); in the assay with K562 it was > 100 µM (inactive); with COLO 205 it was 34 µM (inactive); in the assay on TK-10, > 100 µM (inactive); in the assay with Malme-3M, > 100 µM (inactive); with 786-0, > 100 µM (inactive). For the same compound, the GI50 is 73.1 µM (inactive) with OVCAR-3; 29.4 µM (inactive) in the assay on HL-60; 23.7 µM (inactive) in the assay on HCT-116; > 100 µM (inactive) in the assay on NCI-H460; > 100 µM (inactive) in the assay with SK-OV-3; 34.7 µM (inactive) in the assay with RPMI-8226.
